# Measurements from patent US10118943B2, “Compounds and methods for inhibiting cell death” (Ramot at Tel-Aviv University Ltd., priority 2012, dated 2018).
# “Also recorded” adds a separate entry of the source.
# Tests used:
# PC12 cells = assay: PC12 cell survival assay, zinc toxicity, MTS (Example 1); settings: 400 μM zinc, 4 hrs, peptide 10^−9M
# Procedure: PC12 cells (Pheochromocytoma cells) (ATCC, Bethesda, Md., USA) were seeded at 3×10^4 cells/cm^2 on poly-L-Lysine coated plastic tissue culture dishes (Corning, Lowell, Mass., USA) to form an adherent monolayer. Cells were maintained in Dulbecco's modified Eagle's medium (DMEM) supplemented with 10% horse serum (HS), 5% fetal calf serum (FCS), 2 mM glutamine, 100 U/ml penicillin and […] streptomycin (Biological Industries, Beit Haemek, Israel). PC12 differentiation was induced by nerve growth factor (NGF, Sigma) at concentrations of 50 ng/ml by replacing half of the medium every other day until the cells acquired a differentiated morphology. Differentiated cells were defined as bearing two or more neurites with lengths equal to or more than twice the diameter of the cell body (P. Lamoureux et al., The Journal of cell biology 110, 71 (January, 1990)). The cells were incubated in 5% CO2 in a humidified incubator at 37° C. The cells were sub-cultured every 5 days at a 4:1 split ratio by pipetting. The medium was changed every 2 or 3 days after adhesion.
# Transfections were performed using Lipofectamine RNAiMAX (Invitrogen). Transfection was carried out according to manufacturer's protocol. For rat MAPRE3 knockdown, PC12 cells or neurons were plated in growth medium without antibiotics at concentration of 10^4 cells/0.32 cm^2 such that they will be 30-50% confluent at the time of transfection. To obtain the highest transfection efficiency and low non-specific effects, siRNA transfection was performed in the following optimized conditions: 50 nM for neurons and 25 nM PC12 of each siRNA construct with 0.2 μl Lipofectamine RNAiMAX (Invitrogen) was added per well of the 96-well plate and scaled up for different 24 or 6-well plates, according to the manufacturer's instructions. The medium was changed one day after transfection. 48 and 72 hours later, cells were harvested to assay for gene knockdown at the RNA and protein levels.
# The cells were incubated for 4 hrs at 37° C. 5% CO2. Survival was measured using the MTS assay.
# Metabolic activity of cells was measured by the CellTiter 96® Aqueous Non-Radioactive Cell Proliferation kit in accordance with the manufacturer's instructions (Promega). The assay uses a colorimetric method for determining the number of viable cells employing a tetrazolium compound [3-(4,5-dimethylthiazol-2-yl)-5-(3-carboxymethoxyphenyl)-2-(4-sulfophenyl)-2H-tetrazolium, MTS] and an electron-coupling reagent, phenazine methosulfate (PMS). MTS is bio-reduced by cells into a formazan product that is detected at 490 nm. The conversion of MTS into the formazan form is accomplished by dehydrogenase enzymes found in metabolically active cells. Thus, the quantity of formazan product as measured by the amount of 490 nm absorbance is directly proportional to the number of living cells in culture (A. H. Cory, T. C. Owen, J. A. Barltrop, J. G. Cory, Cancer Commun 3, 207 (July, 1991)).
# primary cortical neurons = assay: PSD-95 density in primary cortical neuron culture; assay type: cell-based, rat; settings: neurons treated for 2 hrs
# Procedure: Methods: 1. Primary cultures of neurons were prepared as follows. Newborn rats were sacrificed on postnatal day 1. Cerebral cortex tissue was then dissected and dissociated individually from each pup with the Papain Dissociation System (PDS; Worthington Biochemical Corporation) according to the manufacturer's instructions. 2. Cells were fixed with ice cold methanol, blocked with 2% bovine serum albumin (BSA) and 5% normal goat serum in Tris buffered saline containing tween 20 (TBS-T; 20 mM Tris pH 7.5, 136.8 mM NaCl, and 0.05% v/v Tween 20), and incubated with primary antibody followed by the appropriate secondary antibody. 3. Primary antibodies that were used include: monoclonal anti PSD-95 (ab-2723, Abcam), monoclonal anti Tyr-α-tubulin antibody (YL1/2) (VMA1864, Abcys, Paris, France), polyclonal anti Glu-α-tubulin antibody (L4) (AbC0101, Abcys, Paris, France), DyLight 488-labeled secondary goat anti-mouse IgG, DyLight 633-labeled secondary goat anti-rabbit IgG (KPL, Gaithersburg, Md., USA), Cy3-conjugated secondary goat anti-Rat IgG, (Jackson ImmunoResearch). 4. Images were collected with a Leica SP5 confocal laser scanning microscope (Mannheim, Germany) with 63× oil immersion optics, laser lines at 488, 561, 633 nm. Identical confocal laser scanning microscopy (CLSM) parameters (e.g., scanning line, laser light, gain, and offset etc.) were used for control and NAP treated cells.
# For instance, a PSD-95 expression assay using primary cortical neuron cultures established from suitable animals may be performed to confirm a compound's activity in promoting cell plasticity. More specifically, primary cultures of neurons are prepared by first taking cerebral cortex tissue from newborn rats on postnatal day 1. The cerebral cortex tissue is then dissected and dissociated individually from each animal. Cells are fixed with ice cold methanol, blocked (e.g., with bovine serum albumin (BSA) and normal goat serum), and incubated with primary antibody (e.g., monoclonal antibody against PSD-95), optionally followed by the appropriate secondary antibody for imaging purposes. Images of primary neuronal cultures are taken and compared between cultures with or without being exposed to a test compound. An increased PSD-95 expression is indicative of the test compound being capable of promoting or protecting cell plasticity, especially neuronal plasticity.
# Cerebral cortex tissue from newborn rats was dissected and dissociated individually from each pup with the Papain Dissociation System (PDS), (Worthington Biochemical Corporation) according to the manufacturer's instructions. Cortical neurons were maintained in Neurobasal medium (NB), (Gibco) supplemented with NeuroCult B27-SM1 ([…]), 1% Glutamax (Gibco), and grown on poly-D-lysine-coated cell culture glass cover slips.
# Images were collected with a Leica SP5 confocal laser scanning microscope (Mannheim, Germany) with 63× oil immersion optics, laser lines at 488, 561, 633 nm or with LSM 510 META (Zeiss, Jena, Germany) confocal laser scanning microscope with 63× oil immersion optics, laser lines at 488, 568, 633 nm. When comparing fluorescence intensities, identical CLSM parameters (e.g., scanning line, laser light, gain, and offset etc.) were used. All of the fluorescent signals acquired were above the autofluorescent background as measured from a control slide stained with secondary antibody without a primary antibody. To compare the relative levels of protein expression, the average integrated density (AID) image analysis procedure was used for cell immunostains. In brief, integrated density is defined by the sum of the values of the pixels in the selected region of interest (ROI). This is equivalent to the product of Area and Mean Gray Value. AID for the positive stained area was determined by measuring the fluorescent intensity of the ROI, which is above the positive cut-off intensity. […]
sequence,measurement,setting,value
NAPVSKIPQ (synthetic novel peptide core sequence SKIP derived from hybrid microtubule end-binding protein 3 (EB3)- binding microtubule plus-end tracking proteins (+TIPs) and activity-dependent neurotrophic factor (ADNF) active core site (NAP)),protection against cell death induced by zinc toxicity (MTS survival),PC12 cells,provided protection against zinc toxicity; also recorded: significantly increased survival
same,protection against cell death induced by zinc toxicity (MTS survival),PC12 cells; listed as SKIP,significantly increased survival
same,derivative peptides effect on PSD-95 density vs vehicle controls (FIG. 10c),primary cortical neurons,paralleled to NAPVSIPQ activity; also recorded: significantly increased
